Test results: ChEMBL document CHEMBL3792337, “Cardiac Glycosides from the Seeds of Thevetia peruviana” (J Nat Prod, 2016)

Assays:
SW1990 = experiment: Cytotoxicity against human SW1990 cells after 48 hrs by MTT assay; format: functional, cell-based; conditions: SW1990, 48 h
[1] = Cytotoxicity against human LO2 cells after 48 hrs by MTT assay; format: cell-based; conditions: L02, 48 h
MGC-803 = experiment: Induction of apoptosis in human MGC803 cells after 24 hrs by annexin V-FITC/propidium iodide staining-based flow cytometry; format: functional, cell-based
[2] = Cytotoxicity against human MGC803 cells after 48 hrs by MTT assay; format: functional, cell-based; conditions: MGC-803, 48 h
[3] = Cytotoxicity against human P15 cells after 48 hrs by MTT assay; format: functional, cell-based; conditions: P15, 48 h

Compound	IC50 (SW1990) [nM]	IC50 [1] [nM]	Activity (MGC-803)	IC50 [2] [nM]	IC50 [3] [nM]
CO[C@H]1[C@H](O)[C@H](O[C@H]2CC[C@@]3(C)[C@H](CC[C@@H]4[C@@H]3CC[C@]3(C)[C@@H](C5=CC(=O)OC5)CC[C@]43O)C2)O[C@@H](C)[C@@H]1O [NERIIFOLIN]	30	> 10000	Dose-dependent effect	20	60
CO[C@H]1[C@H](O)[C@H](O[C@H]2CC[C@@]3(CO)[C@H](CC[C@@H]4[C@@H]3CC[C@]3(C)[C@@H](C5=CC(=O)OC5)CC[C@]43O)C2)O[C@@H](C)[C@@H]1O	20	> 10000	Dose-dependent effect	40	80
CO[C@H]1[C@H](O)[C@H](O[C@H]2CC[C@H]3[C@H](CC[C@@H]4[C@@H]3CC[C@]3(C)[C@@H](C5=CC(=O)OC5)CC[C@]43O)C2)O[C@@H](C)[C@@H]1O	530	> 10000	Dose-dependent effect	570	210
CO[C@H]1[C@H](O)[C@H](O[C@H]2CC[C@@]3(C)[C@@H](CC[C@@H]4[C@@H]3CC[C@]3(C)[C@@H](C5=CC(=O)OC5)CC[C@]43O)C2)O[C@@H](C)[C@@H]1O [THEVEFOLIN]	30	> 10000	Dose-dependent effect	370	10
CO[C@@H]1[C@@H](O)[C@@H](O[C@@H]2CC[C@]3(CO)[C@@H](CC[C@H]4[C@H]3CC[C@@]3(C)[C@H](C5=CC(=O)OC5)CC[C@@]43O)C2)O[C@H](C)[C@H]1O[C@@H]1O[C@H](CO[C@H]2O[C@@H](CO)[C@H](O)[C@@H](O)[C@@H]2O)[C@@H](O)[C@H](O)[C@H]1O	7700	> 10000	–	9520	10000
CO[C@H]1[C@H](O)[C@H](O[C@H]2CC[C@@]3(C)[C@H](CC[C@@H]4[C@@H]3CC[C@]3(C)[C@@H](C5=CC(=O)OC5)CC[C@]43O)C2)O[C@@H](C)[C@@H]1O[C@H]1O[C@@H](CO[C@@H]2O[C@H](CO)[C@@H](O)[C@H](O)[C@H]2O)[C@H](O)[C@@H](O)[C@@H]1O	4560	> 10000	–	> 10000	3970
